Data published in US10093630B2, “Pyrazole compounds and methods of making and using same” (ABIDE THERAPEUTICS, INC., priority 2014, dated 2018).
Where two headings read alike, the source gives them in different places.

Key:
Assay in all cases: In vitro competitive activity-based protein profiling (gel-based, FP-Rh or HT-01 probe)
Type in all cases: biochemical
ABHD6 = molecular target: T1, ABHD6 (Mus musculus, UniProt Q8R2Y0); conditions: for inhibition at 1 µM: 1 μM inhibitor, read-out: % Inhibition at 1 μM, C = ABHD6; for inhibition at 10 µM: 10 μM inhibitor, read-out: % Inhibition at 10 μM, C = ABHD6
T1 construct: Proteomes (mouse brain membrane fraction or cell lysates); from tissue; host or cells: mouse brain membrane fraction (or cell lysates, not specified)
T1 sequence (Q8R2Y0 1-336): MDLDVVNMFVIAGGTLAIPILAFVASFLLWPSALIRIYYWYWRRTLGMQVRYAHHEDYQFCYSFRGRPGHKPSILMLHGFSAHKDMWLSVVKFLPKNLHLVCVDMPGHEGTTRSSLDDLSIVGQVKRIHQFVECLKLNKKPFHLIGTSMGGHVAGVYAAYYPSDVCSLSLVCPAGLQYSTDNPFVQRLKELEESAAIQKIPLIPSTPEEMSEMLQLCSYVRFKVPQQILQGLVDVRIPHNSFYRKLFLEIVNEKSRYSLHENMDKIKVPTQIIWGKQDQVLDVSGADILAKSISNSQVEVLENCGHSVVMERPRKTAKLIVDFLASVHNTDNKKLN
In short: (§1)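 Mouse brain membrane proteome or cell lysate (1.0 mg/mL protein) was preincubated with inhibitor at varying concentrations for 30 min at 37° C, then labelled with FP-Rh or HT-01 for 30 min at 37° C. After SDS-PAGE, residual hydrolase activity was quantified as in-gel fluorescence of each band.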

FAAH = molecular target: T2, FAAH (Mus musculus, UniProt O08914); conditions: for inhibition at 1 µM: 1 μM inhibitor, read-out: % Inhibition at 1 μM, B = FAAH; for inhibition at 10 µM: 10 μM inhibitor, read-out: % Inhibition at 10 μM, B = FAAH
T2 construct: Proteomes (mouse brain membrane fraction or cell lysates); from tissue; host or cells: mouse brain membrane fraction (or cell lysates, not specified)
T2 sequence (O08914 1-579): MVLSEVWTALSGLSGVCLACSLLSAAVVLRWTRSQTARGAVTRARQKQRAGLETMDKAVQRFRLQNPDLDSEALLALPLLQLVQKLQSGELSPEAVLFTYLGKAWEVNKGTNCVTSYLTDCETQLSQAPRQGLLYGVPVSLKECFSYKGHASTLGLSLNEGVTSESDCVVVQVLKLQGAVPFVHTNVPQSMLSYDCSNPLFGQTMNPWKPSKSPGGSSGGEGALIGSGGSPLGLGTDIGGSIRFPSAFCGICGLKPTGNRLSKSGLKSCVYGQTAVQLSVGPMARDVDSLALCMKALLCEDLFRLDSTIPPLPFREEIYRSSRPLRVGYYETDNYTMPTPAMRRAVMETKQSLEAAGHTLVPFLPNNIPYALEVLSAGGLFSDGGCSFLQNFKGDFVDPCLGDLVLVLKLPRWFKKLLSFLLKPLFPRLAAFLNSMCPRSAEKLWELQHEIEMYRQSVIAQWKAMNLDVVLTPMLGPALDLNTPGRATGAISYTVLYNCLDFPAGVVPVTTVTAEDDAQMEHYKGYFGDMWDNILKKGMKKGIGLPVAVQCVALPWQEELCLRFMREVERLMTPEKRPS
In short: as §1

MAGL = molecular target: T3, MAGL (Mus musculus, UniProt O35678); conditions: for inhibition at 1 µM: 1 μM inhibitor; for inhibition at 10 µM: 10 μM inhibitor
T3 construct: Proteomes (mouse brain membrane fraction or cell lysates); from tissue; host or cells: mouse brain membrane fraction (or cell lysates, not specified)
T3 sequence (O35678 1-303): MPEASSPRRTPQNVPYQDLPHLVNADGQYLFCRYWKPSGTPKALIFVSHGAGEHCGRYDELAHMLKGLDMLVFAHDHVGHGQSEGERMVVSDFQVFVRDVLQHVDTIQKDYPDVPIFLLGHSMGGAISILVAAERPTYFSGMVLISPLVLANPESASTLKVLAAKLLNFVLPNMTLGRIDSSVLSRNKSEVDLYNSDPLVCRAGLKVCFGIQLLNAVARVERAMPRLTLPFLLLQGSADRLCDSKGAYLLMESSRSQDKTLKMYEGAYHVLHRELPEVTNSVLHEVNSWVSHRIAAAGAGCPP
In short: as §1

PLA2G7 = molecular target: T4, PLA2G7 (Mus musculus, UniProt Q60963); conditions: for inhibition at 1 µM: 1 μM inhibitor, read-out: % Inhibition at 1 μM, D = PLA2G7; for inhibition at 10 µM: 10 μM inhibitor, read-out: % Inhibition at 10 μM, D = PLA2G7
T4 construct: Proteomes (mouse brain membrane fraction or cell lysates); from tissue; host or cells: mouse brain membrane fraction (or cell lysates, not specified)
T4 sequence (Q60963 22-440): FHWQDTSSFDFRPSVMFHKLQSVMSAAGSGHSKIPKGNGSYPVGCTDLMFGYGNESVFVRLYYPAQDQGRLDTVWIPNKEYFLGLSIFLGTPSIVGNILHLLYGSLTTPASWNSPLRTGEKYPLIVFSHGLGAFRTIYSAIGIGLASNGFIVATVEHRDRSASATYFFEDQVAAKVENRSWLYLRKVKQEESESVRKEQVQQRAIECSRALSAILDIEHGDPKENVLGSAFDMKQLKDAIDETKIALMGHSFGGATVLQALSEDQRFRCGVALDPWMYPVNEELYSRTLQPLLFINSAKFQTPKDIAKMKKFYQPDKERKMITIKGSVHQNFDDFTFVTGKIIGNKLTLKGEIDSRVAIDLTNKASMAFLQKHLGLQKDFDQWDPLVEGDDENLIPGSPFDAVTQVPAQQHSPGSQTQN
In short: as §1

inhibition at 1 µM (ABHD6) [%] | inhibition at 10 µM (ABHD6) [%] | inhibition at 1 µM (FAAH) [%] | inhibition at 10 µM (FAAH) [%] | inhibition at 1 µM (MAGL) [%] | inhibition at 10 µM (MAGL) [%] | inhibition at 1 µM (PLA2G7) [%] | inhibition at 10 µM (PLA2G7) [%] | inhibition at 1 µM (ABHD6; gel-based competitive ABPP) [%] | inhibition at 1 µM (FAAH; gel-based competitive ABPP) [%] | inhibition at 1 µM (MAGL; gel-based competitive ABPP) [%] | inhibition at 1 µM (PLA2G7; gel-based competitive ABPP) [%] | IC50 (ABHD6; mouse brain membrane fraction or cell lysates, 30 min preincubation at 37° C., read-out: Mouse (IC50 value, nM) ABHD6) [nM] | IC50 (FAAH; mouse brain membrane fraction or cell lysates, 30 min preincubation at 37° C., read-out: Mouse (IC50 value, nM) FAAH) [nM] | IC50 (MAGL; mouse brain membrane fraction or cell lysates, 30 min preincubation at 37° C., read-out: Mouse (IC50 value, nM) MAGL) [nM] | IC50 (PLA2G7; mouse brain membrane fraction or cell lysates, 30 min preincubation at 37° C.) [nM] | SMILES
< 25 | 25 to 75 | < 25 | < 25 | < 25 | 25 to 75 | > 75 | > 75 | – | – | – | – | – | – | – | – | CC(=O)N1CCN(C(=O)n2cc(C(F)(F)F)cn2)CC1 [Example 149, 1-(4-(4-(Trifluoromethyl)-1H-pyrazole-1-carbonyl)piperazin-1-yl)ethanone]
– | < 25 | – | < 25 | – | < 25 | – | < 25 | – | – | – | – | – | – | – | – | Cc1cnn(C(=O)N2CCCN(C)CC2)c1 [Example 167, (4-Methyl-1,4-diazepan-1-yl)(4-methyl-1H-pyrazol-1-yl)methanone]

The next lines start with the compound.

SMILES | inhibition at 1 µM (ABHD6) [%] | inhibition at 10 µM (ABHD6) [%] | inhibition at 1 µM (FAAH) [%] | inhibition at 10 µM (FAAH) [%] | inhibition at 1 µM (MAGL) [%] | inhibition at 10 µM (MAGL) [%] | inhibition at 1 µM (PLA2G7) [%] | inhibition at 10 µM (PLA2G7) [%] | inhibition at 1 µM (ABHD6; gel-based competitive ABPP) [%] | inhibition at 1 µM (FAAH; gel-based competitive ABPP) [%] | inhibition at 1 µM (MAGL; gel-based competitive ABPP) [%] | inhibition at 1 µM (PLA2G7; gel-based competitive ABPP) [%] | IC50 (ABHD6; mouse brain membrane fraction or cell lysates, 30 min preincubation at 37° C., read-out: Mouse (IC50 value, nM) ABHD6) [nM] | IC50 (FAAH; mouse brain membrane fraction or cell lysates, 30 min preincubation at 37° C., read-out: Mouse (IC50 value, nM) FAAH) [nM] | IC50 (MAGL; mouse brain membrane fraction or cell lysates, 30 min preincubation at 37° C., read-out: Mouse (IC50 value, nM) MAGL) [nM] | IC50 (PLA2G7; mouse brain membrane fraction or cell lysates, 30 min preincubation at 37° C.) [nM]
N#Cc1cnn(C(=O)NCc2ccc3ccccc3c2)c1 [Example 45, 4-Cyano-N-(naphthalen-2-ylmethyl)-1H-pyrazole-1-carboxamide] | < 25 | < 25 | < 25 | > 75 | < 25 | 25 to 75 | < 25 | < 25 | – | – | – | – | – | – | – | –
Cc1cnn(C(=O)N2CCN(Cc3ccc4ccccc4c3)CC2)c1 [Example 11, (4-Methyl-1H-pyrazol-1-yl)(4-(naphthalen-2-ylmethyl)piperazin-1-yl)methanone] | > 75 | > 75 | < 25 | 25 to 75 | > 75 | > 75 | < 25 | > 75 | – | – | – | – | – | – | – | –
N#Cc1cnn(C(=O)N2CCN(C(=O)c3ccccc3)CC2)c1 [Example 176, 1-(4-Benzoylpiperazine-1-carbonyl)-1H-pyrazole-4-carbonitrile] | < 25 | > 75 | < 25 | 25 to 75 | > 75 | > 75 | > 75 | > 75 | – | – | – | – | – | – | – | –
N#Cc1cnn(C(=O)N2CCN(Cc3cccc(Oc4ccccc4)c3)CC2)c1 [Example 295, 1-(4-(3-Phenoxybenzyl)piperazine-1-carbonyl)-1H-pyrazole-4-carbonitrile] | – | – | – | – | – | – | – | – | > 75 | > 75 | > 75 | < 25 | – | – | – | –
CCN(Cc1cccc(Cl)c1)C(=O)n1cc(C#N)cn1 [Example 243, N-(3-chlorobenzyl)-4-cyano-N-ethyl-1H-pyrazole-1-carboxamide] | > 75 | – | > 75 | – | > 75 | – | < 25 | – | – | – | – | – | > 1000 | < 100 | 100 to 1000 | > 1000
